Measurements published in ChEMBL document CHEMBL3351613, “Indolylarylsulfones carrying a heterocyclic tail as very potent and broad spectrum HIV-1 non-nucleoside reverse transcriptase inhibitors” (J Med Chem, 2014).
Activity calls are given as the source filed them. The rule behind the calls is not given here.

Assays:
[1] = system: Human immunodeficiency virus 1; assay: Antiviral activity against HIV1 NL4-3 expressing reverse transcriptase L100I mutant infected in human MT4 cells assessed as reduction in virus-induced cell death by MTT assay; type: functional, organism-based; conditions: Human immunodeficiency virus 1, NL4-3, MT4
[2] = system: Human immunodeficiency virus 1; type: functional, organism-based; conditions: Human immunodeficiency virus 1, NL4-3, MT4
[3] = system: Human immunodeficiency virus 1; type: functional, organism-based; conditions: Human immunodeficiency virus 1, NL4-3, MT4; remark: listed apart in the source
[4] = biological target: Human immunodeficiency virus type 1 reverse transcriptase (Human immunodeficiency virus 1, UniProt Q72547, K103N)
Description: Inhibition of wild type HIV1 reverse transcriptase K103N mutant assessed as reduction in enzyme activity

[5] = in vitro; conditions: human, MT4 cells
Description: Selectivity index, ratio of CC50 for human MT4 cells to EC50 for HIV1 NL4-3 infected in human MT4 cells

[6] = system: Human immunodeficiency virus 1; assay: Antiviral activity against HIV1 NL4-3 expressing reverse transcriptase K103N mutant infected in human MT4 cells assessed as reduction in virus-induced cell death by MTT assay; type: functional, organism-based; conditions: Human immunodeficiency virus 1, NL4-3, MT4
[7] = system: Human immunodeficiency virus 1; assay: Antiviral activity against HIV1 NL4-3 infected in human MT4 cells assessed as reduction in virus-induced cell death by MTT assay; type: functional, organism-based; conditions: Human immunodeficiency virus 1, NL4-3, MT4
[8] = system: Human immunodeficiency virus 1; assay: Antiviral activity against HIV1 3B infected in human CEM cells assessed as protection against virus-induced cytopathicity by giant cell formation assay; type: functional, organism-based; conditions: Human immunodeficiency virus 1, 3B, CCRF-CEM
[9] = biological target: Human immunodeficiency virus type 1 reverse transcriptase (Human immunodeficiency virus 1, UniProt Q72547, L100I)
Description: Inhibition of wild type HIV1 reverse transcriptase L100I mutant assessed as reduction in enzyme activity

[10] = biological target: T1, Human immunodeficiency virus type 1 reverse transcriptase (Human immunodeficiency virus 1, UniProt Q72547)
Description: Inhibition of wild type HIV1 reverse transcriptase assessed as reduction in enzyme activity

[11] = biological target: Human immunodeficiency virus type 1 reverse transcriptase (Human immunodeficiency virus 1, UniProt Q72547, Y181I)
[12] = Cytotoxic activity against human MT4 cells by MTT assay; type: cell-based
[13] = system: Human immunodeficiency virus 2; assay: Antiviral activity against HIV2 ROD infected in human CEM cells assessed as protection against virus-induced cytopathicity by giant cell formation assay; type: functional, organism-based; conditions: Human immunodeficiency virus 2, ISOLATE ROD, CCRF-CEM
[14] = system: Human immunodeficiency virus 1; type: functional, organism-based; conditions: Human immunodeficiency virus 1, NL4-3, MT4; remark: listed apart in the source
[15] = biological target: T1, Human immunodeficiency virus type 1 reverse transcriptase; remark: listed apart in the source
[16] = biological target: Human immunodeficiency virus type 1 reverse transcriptase (Human immunodeficiency virus 1, UniProt Q72547, V106A); assay: Inhibition of […] HIV1 reverse transcriptase V106A mutant assessed as reduction in enzyme activity
[17] = system: Human immunodeficiency virus 1; assay: Antiviral activity against HIV1 Clade A (UG273) infected in human PBMC assessed as reduction in p24 antigen production; type: functional, organism-based; conditions: Human immunodeficiency virus 1, Clade A (UG273)
[18] = system: Human immunodeficiency virus 2; assay: Antiviral activity against HIV2 ROD infected in human PBMC cells assessed as reduction in p24 antigen production; type: functional, organism-based; conditions: ISOLATE ROD
[19] = system: Human immunodeficiency virus 1; assay: Antiviral activity against HIV1 Clade F (BZ162) infected in human PBMC assessed as reduction in p24 antigen production; type: functional, organism-based; conditions: Human immunodeficiency virus 1, Clade F (BZ162)
[20] = system: Human immunodeficiency virus 1; assay: Antiviral activity against HIV1 Clade G (HH8793) infected in human PBMC assessed as reduction in p24 antigen production; type: functional, organism-based; conditions: Human immunodeficiency virus 1, Clade G (HH8793)
[21] = system: Human immunodeficiency virus 1; assay: Antiviral activity against HIV1 Clade B (BaL) infected in human PBMC assessed as reduction in p24 antigen production; type: functional, organism-based; conditions: Human immunodeficiency virus 1, Clade B (BaL)
[22] = system: Human immunodeficiency virus 1; assay: Antiviral activity against HIV1 Clade C (DJ259) infected in human PBMC assessed as reduction in p24 antigen production; type: functional, organism-based; conditions: Human immunodeficiency virus 1, Clade C (DJ259)
[23] = system: Human immunodeficiency virus 1; assay: Antiviral activity against HIV1 Clade A/E (ID12) infected in human PBMC assessed as reduction in p24 antigen production; type: functional, organism-based; conditions: Human immunodeficiency virus 1, Clade A/E (ID12)
[24] = system: Human immunodeficiency virus 1; assay: Antiviral activity against HIV1 Clade D (UG270) infected in human PBMC assessed as reduction in p24 antigen production; type: functional, organism-based; conditions: Human immunodeficiency virus 1, Clade D (UG270)

Row | Structure (SMILES) | EC50 [1] | EC50 [2] | EC50 [3] | IC50 [4] | selectivity ratio [5] | EC50 [6] | EC50 [7] | EC50 [8] | IC50 [9] | IC50 [10] | IC50 [11] | CC50 [12] | EC50 [13] | EC50 [14] | also measured
1 | Cc1cc(C)cc(S(=O)(=O)c2c(C(=O)NCCn3c([N+](=O)[O-])cnc3C)[nH]c3ccc(Cl)cc23)c1 | 140 nM | > 48500 nM | 670 nM | 640 nM | 40900 | 140 nM | 0.62 nM | 4.1 nM | 160 nM | 44 nM | 131 nM | 25400 nM | > 10000 nM |  | 
2 | Cc1cc(C)cc(S(=O)(=O)c2c(C(=O)NNc3ccncc3)[nH]c3ccc(Cl)cc23)c1 |  | 55000 nM | > 20000 nM | > 20000 nM | 727 | 16000 nM | 41.7 nM | 730 nM | 9400 nM | > 20000 nM | > 20000 nM | 30300 nM | ≥ 50000 nM |  | 
3 | Cc1cc(C)cc(S(=O)(=O)c2c(C(=O)Nc3ccncc3)[nH]c3ccc(Cl)cc23)c1 |  | > 20600 nM | 16 nM |  | 89600 |  | 0.23 nM |  |  |  |  | 20600 nM |  | 1270 nM | 
4 | Cc1cccc(C)c1S(=O)(=O)c1c(C(=O)NCc2ccncc2)[nH]c2ccc(Cl)cc12 |  | > 55100 nM | > 55100 nM |  | > 167 | > 55100 nM | 330 nM |  |  |  |  | > 55100 nM |  | > 55100 nM | 
5 | Cc1cccc(C)c1S(=O)(=O)c1c(C(N)=O)[nH]c2ccc(Cl)cc12 |  | > 48900 nM | 42700 nM |  | > 1110 | > 49400 nM | 44.1 nM |  |  |  |  | > 48900 nM |  | > 48900 nM | 
6 | O=C(NCc1ccncc1)c1[nH]c2ccc(Cl)cc2c1S(=O)(=O)c1c(Cl)cccc1Cl |  | > 50500 nM | 2530 nM |  | > 62400 | 5260 nM | 0.81 nM |  |  |  |  | > 50300 nM |  | > 50500 nM | 
7 | Cc1cc(C)cc(S(=O)(=O)c2c(C(=O)NCCc3ccccc3)[nH]c3ccc(Cl)cc23)c1 |  | > 53500 nM | 107 nM |  | 18000 | 21 nM | 2.1 nM |  |  |  | > 20000 nM | 37900 nM |  | > 36400 nM | 
8 | Cc1cc(C)cc(S(=O)(=O)c2c(C(=O)NC(C)c3ccncc3)[nH]c3ccc(Cl)cc23)c1 (racemic) | 4.7 nM | 1110 nM | 87 nM | 220 nM | 151000 | 9.4 nM | 0.2 nM | 4.1 nM | 30 nM | 40 nM | 3550 nM | 30200 nM | > 10000 nM |  | IC50 [15]: 3500 nM; IC50 [16]: 40 nM
9 | NC(=O)c1[nH]c2ccc(Cl)cc2c1S(=O)(=O)c1c(Cl)cccc1Cl |  | 16000 nM | 5170 nM |  | 64100 | > 16000 nM | 0.25 nM |  |  |  |  | 16000 nM |  | > 16000 nM | 
10 | Cc1cc(C)cc(S(=O)(=O)c2c(C(=O)Nc3cccc(N)c3)[nH]c3ccc(Cl)cc23)c1 | 57 nM | 2140 nM | 66 nM | 310 nM | 108000 | 4.4 nM | 0.22 nM | 17 nM |  | 19 nM | 226 nM | 23800 nM |  | 947 nM | 
11 | Cc1cc(C)cc(S(=O)(=O)c2c(C(=O)NC(C)c3ccccn3)[nH]c3ccc(Cl)cc23)c1 (racemic) | 45 nM | 6000 nM | 230 nM | 100 nM | 91000 | 34 nM | 0.6 nM | 3.2 nM | 30 nM | 64 nM | 11100 nM | 54600 nM | > 10000 nM |  | 
12 | Cc1cc(C)cc(S(=O)(=O)c2c(C(=O)NC(C)c3cccnc3)[nH]c3ccc(Cl)cc23)c1 (racemic) | 20 nM | 8480 nM | 220 nM | 120 nM | 91000 | 34 nM | 0.6 nM | 6.6 nM | 20 nM | 100 nM | > 20000 nM | 54600 nM | > 10000 nM |  | 
13 | Cc1cc(C)cc(S(=O)(=O)c2c(C(=O)NC(C)c3cccs3)[nH]c3ccc(Cl)cc23)c1 (stereo unspecified) |  | 2640 nM | 68 nM | 79 nM | 162000 | 2.1 nM | 0.2 nM |  |  | 27 nM |  | 32300 nM |  | 347 nM | 
14 | Cc1cc(C)cc(S(=O)(=O)c2c(C(=O)NC(C)c3ccccc3)[nH]c3ccc(Cl)cc23)c1 (stereo unspecified) | 26 nM |  |  |  | > 206000 |  |  |  | 70 nM |  | 8230 nM | > 53500 nM | > 10000 nM |  | 
15 | Cc1cc(C)cc(S(=O)(=O)c2c(C(=O)NCCc3cccs3)[nH]c3ccc(Cl)cc23)c1 | 5.4 nM | > 52900 nM | 160 nM | 42 nM | > 62900 | 21 nM | 0.84 nM | 3.4 nM | 1 nM | 70 nM | > 20000 nM | > 52900 nM | > 50000 nM |  | 
16 | Cc1ccnc2c1NC(=O)c1cccnc1N2C1CC1 [NEVIRAPINE] | 60 nM | > 3760 nM | > 3760 nM |  |  | > 3760 nM | 112 nM |  |  |  |  | > 18800 nM |  | > 3760 nM | 
17 | Cc1cc(C)cc(S(=O)(=O)c2c(C(=O)N[C@@H](C)c3ccncc3)[nH]c3ccc(Cl)cc23)c1 |  | 4120 nM | 128 nM | 700 nM |  | 4.3 nM | 0.2 nM |  | 20 nM | 40 nM |  |  |  | 5170 nM | EC50 [17]: 5.2 nM; IC50 [15]: 110000 nM; Activity [18]: inactive; EC50 [19]: 4.9 nM; EC50 [20]: 3.6 nM; IC50 [16]: 55 nM; EC50 [21]: 2 nM; EC50 [22]: 1.4 nM; EC50 [23]: 4.1 nM; EC50 [24]: 4.3 nM
18 | Cc1cc(C)cc(S(=O)(=O)c2c(C(=O)NCc3cccs3)[nH]c3ccc(Cl)cc23)c1 | 7.1 nM | > 54500 nM | 160 nM | > 20000 nM | > 77800 | 9.1 nM | 0.7 nM | 5.2 nM | 100 nM | 30 nM | > 20000 nM | > 54500 nM | > 10000 nM |  | 
19 | Cc1cc(C)cc(S(=O)(=O)c2c(C(=O)NCc3ccncn3)[nH]c3ccc(Cl)cc23)c1 |  | 132 nM | 2.2 nM | 96 nM | > 250000 |  | 0.22 nM |  |  | 42 nM | 4.2 nM | > 55000 nM |  | 50.6 nM | 
20 | O=C1Nc2ccc(Cl)cc2[C@@](C#CC2CC2)(C(F)(F)F)O1 [EFAVIRENZ] | 22 nM | > 317 nM |  |  |  |  |  |  |  |  |  | > 15800 nM |  |  | 
21 | Cc1cc(C)cc(S(=O)(=O)c2c(C(=O)NCc3ccco3)[nH]c3ccc(Cl)cc23)c1 |  | 971 nM | 0.8 nM | 9 nM | > 282000 |  | 0.2 nM |  |  | 3 nM | 234 nM | > 56400 nM |  | 45 nM | 
22 | Cc1cc(C#N)cc(C)c1Oc1nc(Nc2ccc(C#N)cc2)nc(N)c1Br [ETRAVIRINE] |  | 16 nM | 6 nM |  |  | 16 nM | 3.7 nM |  |  |  |  | > 30600 nM |  | 33 nM | 
23 | Cc1cc(C)cc(S(=O)(=O)c2c(C(=O)NCc3ccccc3)[nH]c3ccc(Cl)cc23)c1 |  | 1920 nM |  | > 20000 nM | 173000 | 0.9 nM | 0.22 nM |  |  |  | > 20000 nM | 38000 nM |  | 90 nM | 
24 | Cc1cc(C)cc(S(=O)(=O)c2c(C(=O)NN(C)c3ccccc3)[nH]c3ccc(Cl)cc23)c1 |  | > 42700 nM | 1470 nM | 234 nM | 21000 | 64.1 nM | 2.1 nM |  |  | 16 nM | > 20000 nM | 44100 nM |  | > 42700 nM | 
